Data taken from ChEMBL document CHEMBL1201862, “PubChem BioAssay data set” (2004).
The source made the active and inactive calls. Unless noted, no cut-off for these calls is given here.

Legend:
[1] = biological target: Nucleotide-binding oligomerization domain-containing protein 1 (Homo sapiens, UniProt Q9Y239); assay: blockers of NOD1 pathway activity – revised, SAR follow-up (AID 2333); type: functional
Tumor necrosis factor = Tumor necrosis factor (Homo sapiens, UniProt P01375); assay: analog potency on TNFa NF-kB signaling – cell-based, revised, SAR follow-up (AID 2337); type: functional
Chain of Tumor necrosis factor (P01375 whole entry): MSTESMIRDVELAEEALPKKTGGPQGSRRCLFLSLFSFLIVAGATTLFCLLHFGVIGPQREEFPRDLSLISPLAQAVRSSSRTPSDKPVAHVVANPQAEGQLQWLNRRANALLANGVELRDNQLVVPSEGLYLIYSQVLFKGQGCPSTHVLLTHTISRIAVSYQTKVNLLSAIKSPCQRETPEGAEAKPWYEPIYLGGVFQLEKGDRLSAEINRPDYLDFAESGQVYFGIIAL

[2] = biological target: T1, Heat shock factor protein 1 (Mus musculus, UniProt P38532); assay: decrease of HSF1-responsive luciferase luminescence – cell-based, NIH3T3, dose retest, confirmation (AID 2382); type: functional;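 note: NIH3T3 fibroblasts with HSF1-driven luciferase reporter stressed by proteasome inhibitor MG132; luminescence from HSF1-driven luciferase expression after 8 hours of MG132 stress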
T1 sequence (P38532 whole entry): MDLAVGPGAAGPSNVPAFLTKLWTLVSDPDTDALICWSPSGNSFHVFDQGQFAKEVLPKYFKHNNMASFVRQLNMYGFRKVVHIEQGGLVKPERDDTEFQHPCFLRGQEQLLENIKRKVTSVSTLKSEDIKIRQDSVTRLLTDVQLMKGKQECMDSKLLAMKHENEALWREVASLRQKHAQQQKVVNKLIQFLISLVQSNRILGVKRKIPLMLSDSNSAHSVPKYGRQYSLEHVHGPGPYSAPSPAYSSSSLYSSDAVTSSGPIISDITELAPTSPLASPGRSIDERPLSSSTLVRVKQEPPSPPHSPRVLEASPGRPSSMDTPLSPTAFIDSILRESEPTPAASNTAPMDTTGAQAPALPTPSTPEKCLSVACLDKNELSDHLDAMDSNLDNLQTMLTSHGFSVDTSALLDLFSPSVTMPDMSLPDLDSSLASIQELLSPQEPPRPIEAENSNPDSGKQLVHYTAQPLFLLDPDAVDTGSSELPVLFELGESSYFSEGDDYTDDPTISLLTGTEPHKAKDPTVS

[3] = biological target: Induced myeloid leukemia cell differentiation protein Mcl-1 (Homo sapiens, UniProt Q07820); type: functional
Chain of Induced myeloid leukemia cell differentiation protein Mcl-1 (Q07820 whole entry): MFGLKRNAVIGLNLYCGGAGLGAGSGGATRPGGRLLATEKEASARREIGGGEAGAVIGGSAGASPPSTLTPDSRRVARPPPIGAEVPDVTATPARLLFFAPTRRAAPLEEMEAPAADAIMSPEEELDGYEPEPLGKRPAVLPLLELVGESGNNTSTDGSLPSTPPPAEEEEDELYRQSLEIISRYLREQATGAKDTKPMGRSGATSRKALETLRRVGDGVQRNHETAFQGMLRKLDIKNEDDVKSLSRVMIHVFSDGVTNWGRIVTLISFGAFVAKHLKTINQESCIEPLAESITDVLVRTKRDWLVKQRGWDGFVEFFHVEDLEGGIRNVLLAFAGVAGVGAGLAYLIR

HEK293 = assay: cells; details: Homo sapiens;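 note: cells exposed to compound for 14 hours overnight before viability readout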
[4] = biological target: T2, COUP transcription factor 2 (Homo sapiens, UniProt P24468); assay: Luminescence-based cell-based high throughput dose response assay to identify inhibitors of COUP-TFII (NR2F2).; type: functional;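 note: HEK293 cells transiently cotransfected with COUP-TFII expression vector and reporter; luciferase reporter luminescence driven by COUP-TFII from the pX2-168 reporter plasmid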
T2 sequence (P24468 whole entry): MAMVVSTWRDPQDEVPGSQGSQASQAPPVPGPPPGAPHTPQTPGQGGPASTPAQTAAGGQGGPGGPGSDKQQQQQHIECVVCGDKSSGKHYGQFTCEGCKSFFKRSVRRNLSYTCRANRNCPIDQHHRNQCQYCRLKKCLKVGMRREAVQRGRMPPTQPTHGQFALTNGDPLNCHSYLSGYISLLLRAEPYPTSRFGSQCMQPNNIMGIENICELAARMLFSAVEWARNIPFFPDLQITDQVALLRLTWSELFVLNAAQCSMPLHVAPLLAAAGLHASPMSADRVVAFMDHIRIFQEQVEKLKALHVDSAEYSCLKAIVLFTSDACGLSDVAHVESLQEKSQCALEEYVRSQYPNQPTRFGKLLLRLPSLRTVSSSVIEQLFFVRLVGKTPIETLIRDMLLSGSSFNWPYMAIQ

[5] = Luminescence-based counterscreen assay for KLF5 inhibitors: dose response cell-based high throughput screening assay to identify cytotoxic compounds using the IEC-6 intestinal epithelial cell line. [Related pubchem assays: 1700 (Primary screen.), 1834 (Confirmation screen.), 1858 (Summary AID.), 1905 (Counterscreen.)]; type: functional
[6] = biological target: T3, Kappa-type opioid receptor (Homo sapiens, UniProt P41145); assay: SAR analysis of Agonists of the Kappa Opioid Receptor (KOR) using an Image-Based Assay - Set 2. [Related pubchem assays (depositor defined):AID1777, AID1786, AID1966, AID2133, AID2136, AID2284, AID2285, AID2359]; type: functional
T3 sequence (P41145 whole entry): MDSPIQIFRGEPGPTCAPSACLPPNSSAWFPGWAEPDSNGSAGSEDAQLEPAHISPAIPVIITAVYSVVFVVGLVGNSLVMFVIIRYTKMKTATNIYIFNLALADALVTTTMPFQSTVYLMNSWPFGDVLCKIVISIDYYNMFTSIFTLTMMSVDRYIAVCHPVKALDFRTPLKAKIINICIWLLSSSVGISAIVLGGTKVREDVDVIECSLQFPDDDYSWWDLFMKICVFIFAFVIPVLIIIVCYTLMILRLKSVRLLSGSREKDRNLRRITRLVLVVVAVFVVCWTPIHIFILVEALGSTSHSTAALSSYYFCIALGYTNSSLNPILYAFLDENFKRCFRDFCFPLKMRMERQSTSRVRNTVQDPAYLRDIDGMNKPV

[7] = biological target: T3, Kappa-type opioid receptor; assay: SAR analysis of Antagonists of the Kappa Opioid Receptor (KOR) using an Image-Based Assay - Set 2. [Related pubchem assays (depositor defined):AID1777, AID1785, AID1786, AID1966, AID2133, AID2136, AID2284, AID2285, AID2348]; type: functional
Mu-type opioid receptor [8] = biological target: T4, Mu-type opioid receptor (Homo sapiens, UniProt P35372); assay: SAR Analysis of Agonists of the MOR Receptor using an Image-Based Assay - Set 2. [Related pubchem assays (depositor defined):AID1777, AID1785, AID1786, AID1966, AID2133, AID2136, AID2284, AID2285, AID2352]; type: functional
T4 sequence (P35372 whole entry): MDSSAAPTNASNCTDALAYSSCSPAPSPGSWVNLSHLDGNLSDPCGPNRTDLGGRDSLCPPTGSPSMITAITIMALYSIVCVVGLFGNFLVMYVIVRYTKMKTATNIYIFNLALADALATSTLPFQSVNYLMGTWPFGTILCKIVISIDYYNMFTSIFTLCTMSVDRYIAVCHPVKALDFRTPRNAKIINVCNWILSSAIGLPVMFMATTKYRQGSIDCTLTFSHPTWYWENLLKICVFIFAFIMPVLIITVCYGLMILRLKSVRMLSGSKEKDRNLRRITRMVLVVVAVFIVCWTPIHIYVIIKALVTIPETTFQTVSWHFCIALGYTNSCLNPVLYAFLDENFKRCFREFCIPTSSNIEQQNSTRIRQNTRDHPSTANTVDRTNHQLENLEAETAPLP

[9] = biological target: T5, Delta-type opioid receptor (Homo sapiens, UniProt P41143); assay: SAR Analysis of Agonists of the DOR Receptor using an Image-Based Assay - Set 2. [Related pubchem assays (depositor defined):AID1777, AID1785, AID1786, AID1966, AID2133, AID2136, AID2284, AID2285, AID2370]; type: functional
T5 sequence (P41143 whole entry): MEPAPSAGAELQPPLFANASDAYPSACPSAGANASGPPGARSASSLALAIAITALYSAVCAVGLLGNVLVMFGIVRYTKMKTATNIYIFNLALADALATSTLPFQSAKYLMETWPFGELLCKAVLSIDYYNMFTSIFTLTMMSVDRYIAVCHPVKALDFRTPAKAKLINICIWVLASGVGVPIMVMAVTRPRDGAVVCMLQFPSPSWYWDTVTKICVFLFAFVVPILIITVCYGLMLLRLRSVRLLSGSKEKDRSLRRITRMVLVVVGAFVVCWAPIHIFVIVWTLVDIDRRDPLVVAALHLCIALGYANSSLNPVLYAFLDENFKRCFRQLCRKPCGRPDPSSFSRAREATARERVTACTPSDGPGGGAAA

[10] = biological target: T5, Delta-type opioid receptor; assay: SAR Analysis of Antagonists of the DOR Receptor using an Image-Based Assay - Set 2. [Related pubchem assays (depositor defined):AID1777, AID1785, AID1786, AID1966, AID2133, AID2136, AID2284, AID2285, AID2357]; type: functional
Mu-type opioid receptor [11] = biological target: T4, Mu-type opioid receptor; assay: SAR Analysis of Antagonists of the MOR Receptor using an Image-Based Assay - Set 2. [Related pubchem assays (depositor defined):AID1777, AID1785, AID1786, AID1966, AID2133, AID2136, AID2284, AID2285, AID2420]; type: functional
[12] = biological target: T3, Kappa-type opioid receptor; assay: SAR analysis of small molecule agonists of the kappa opioid receptor via a luminescent beta-arrestin assay - Set 2. [Related pubchem assays (depositor defined):AID1777, AID1785, AID1786, AID1966, AID2133, AID2136, AID2284, AID449737]; type: functional

Chain of Nucleotide-binding oligomerization domain-containing protein 1 (Q9Y239 whole entry, the tested form may be a part): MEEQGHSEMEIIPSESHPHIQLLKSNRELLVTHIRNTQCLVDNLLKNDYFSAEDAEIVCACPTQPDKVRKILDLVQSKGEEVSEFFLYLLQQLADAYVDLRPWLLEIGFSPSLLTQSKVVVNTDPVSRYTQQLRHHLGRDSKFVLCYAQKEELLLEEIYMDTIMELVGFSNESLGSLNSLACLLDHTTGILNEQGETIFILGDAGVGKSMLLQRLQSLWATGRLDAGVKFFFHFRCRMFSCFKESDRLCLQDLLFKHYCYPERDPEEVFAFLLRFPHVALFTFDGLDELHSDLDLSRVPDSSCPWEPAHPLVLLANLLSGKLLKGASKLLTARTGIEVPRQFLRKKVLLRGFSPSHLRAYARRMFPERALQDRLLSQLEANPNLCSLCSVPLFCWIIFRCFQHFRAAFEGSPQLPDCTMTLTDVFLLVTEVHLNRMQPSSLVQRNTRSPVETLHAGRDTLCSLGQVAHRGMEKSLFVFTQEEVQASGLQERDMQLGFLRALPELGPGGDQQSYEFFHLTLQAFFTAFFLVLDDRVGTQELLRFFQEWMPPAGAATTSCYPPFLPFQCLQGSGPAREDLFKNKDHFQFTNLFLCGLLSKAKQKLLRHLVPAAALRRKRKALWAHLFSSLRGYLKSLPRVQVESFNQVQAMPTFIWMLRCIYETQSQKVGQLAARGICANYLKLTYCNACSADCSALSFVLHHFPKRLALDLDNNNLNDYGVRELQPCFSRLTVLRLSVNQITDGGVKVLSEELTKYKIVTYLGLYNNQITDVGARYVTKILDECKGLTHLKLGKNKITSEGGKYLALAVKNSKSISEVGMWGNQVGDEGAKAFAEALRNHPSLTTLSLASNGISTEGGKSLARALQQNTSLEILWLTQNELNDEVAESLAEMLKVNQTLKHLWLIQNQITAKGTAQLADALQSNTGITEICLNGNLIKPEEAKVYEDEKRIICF

Row | EC50 [6] | IC50 [7] | EC50 (Mu-type opioid receptor [8]) | EC50 [9] | IC50 [10] | IC50 (Mu-type opioid receptor [11]) | EC50 [12] | SMILES | IC50 [1] | IC50 (Tumor necrosis factor) | EC50 [2] | IC50 [3] | IC50 (HEK293) | IC50 [4] | IC50 [5]
1 |  |  |  |  |  |  |  | COC(=O)c1ccc2nc(Nc3nc4ccc(F)cc4s3)sc2c1 | 1.91 µM (active) | 0.462 µM (active) | < 0.16 µM (active) | 1.11 µM (active) | > 20 µM (inactive) | 34 µM (inactive) | > 39.8 µM (not active)
2 | > 32 µM (inactive) | 2.55 µM (active) | > 32 µM (inactive) | > 32 µM (inactive) | > 32 µM (inactive) | > 32 µM (inactive) | > 20 µM (inactive) | CCc1ccc(S(=O)(=O)NCc2ccc(C(=O)NCCN(Cc3ccccc3)C(C)C)cc2)cc1 |  |  |  |  |  |  | 
